Experimental data published in PubChem BioAssay AID1963868 (Molecular Pharmacology Branch, DTP, NCI, 2024).

System: KRAS PDC tumor spheroids (HUVEC+MSC), viability
Assay: Anticancer human tumor 254851-301-R-J1-PDC patient-derived colon carcinoma cell line growth inhibition [KRAS2]
Conditions: for viability, T/C: stronger effect = lower value
Summary of the method: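 KRAS-mutant tumor cells were grown as spheroids with HUVEC endothelial cells and human MSCs as stroma. Targeted agents were tested alone and with KRAS pathway inhibitors. Doses started at or near clinical Cmax, or 10 microM, descending half-log.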

[1] = curve of first compound, second compound 0.1 µM
[2] = curve of first compound, second compound 0.316 µM
[3] = curve of first compound, second compound 1 µM
[4] = curve of first compound, second compound 3.16 µM
[5] = curve of first compound, second compound 10 µM
[6] = second compound 0.1 µM, first compound 0.0316 µM
[7] = second compound 0.1 µM, first compound 0.1 µM
[8] = second compound 0.1 µM, first compound 0.316 µM
[9] = second compound 0.1 µM, first compound 1 µM
[10] = second compound 0.1 µM, first compound 3.16 µM
[11] = second compound 0.1 µM, first compound 10 µM
[12] = second compound 0.316 µM, first compound 0.0316 µM
[13] = second compound 0.316 µM, first compound 0.1 µM
[14] = second compound 0.316 µM, first compound 0.316 µM
[15] = second compound 0.316 µM, first compound 1 µM
[16] = second compound 0.316 µM, first compound 3.16 µM
[17] = second compound 0.316 µM, first compound 10 µM
[18] = second compound 1 µM, first compound 0.0316 µM
[19] = second compound 1 µM, first compound 0.1 µM
[20] = second compound 1 µM, first compound 0.316 µM
[21] = second compound 1 µM, first compound 1 µM
[22] = second compound 1 µM, first compound 3.16 µM
[23] = second compound 1 µM, first compound 10 µM
[24] = second compound 3.16 µM, first compound 0.0316 µM
[25] = second compound 3.16 µM, first compound 0.1 µM
[26] = second compound 3.16 µM, first compound 0.316 µM
[27] = second compound 3.16 µM, first compound 1 µM
[28] = second compound 3.16 µM, first compound 3.16 µM
[29] = second compound 3.16 µM, first compound 10 µM
[30] = second compound 10 µM, first compound 0.0316 µM
[31] = second compound 10 µM, first compound 0.1 µM
[32] = second compound 10 µM, first compound 0.316 µM
[33] = second compound 10 µM, first compound 1 µM
[34] = second compound 10 µM, first compound 3.16 µM
[35] = second compound 10 µM, first compound 10 µM
[36] = second compound 0.1 µM, first compound 0.01 µM
[37] = second compound 0.316 µM, first compound 0.01 µM
[38] = second compound 1 µM, first compound 0.01 µM
[39] = second compound 3.16 µM, first compound 0.01 µM
[40] = second compound 10 µM, first compound 0.01 µM
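Note: spheroids exposed to compounds for seven days before readout.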
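Throughout, for viability, T/C: 100% = DMSO vehicle control luminescence of the spheroids.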

Row | SMILES | IC50 [1] | IC50 [2] | IC50 [3] | IC50 [4] | IC50 [5] | viability, T/C [6] | viability, T/C [7] | viability, T/C [8] | viability, T/C [9] | viability, T/C [10] | viability, T/C [12] | viability, T/C [13] | viability, T/C [14] | viability, T/C [15] | viability, T/C [18] | viability, T/C [19] | viability, T/C [24] | viability, T/C [25] | viability, T/C [30] | viability, T/C [31] | also measured
1 | CC(C)NCC(C(=O)N1CCN(c2ncnc3c2C(C)CC3O)CC1)c1ccc(Cl)cc1 (stereo not given) + C=CC(=O)N1CCN(c2nc(=O)n(-c3c(C)ccnc3C(C)C)c3nc(-c4c(O)cccc4F)c(F)cc23)C(C)C1 | > 10 µM | > 10 µM | > 10 µM | > 10 µM | > 10 µM | 98.2% | 105% | 92.1% | 98.6% | 98.4% | 97.4% | 92.6% | 91.7% | 96.4% | 96.9% | 99.9% | 98.1% | 105% | 98.7% | 102% | viability, T/C [11]: 97%; viability, T/C [16]: 89.2%; viability, T/C [17]: 89.8%; viability, T/C [20]: 93%; viability, T/C [21]: 86.1%; viability, T/C [22]: 92.5%; viability, T/C [23]: 91.2%; viability, T/C [26]: 95.5%; viability, T/C [27]: 98.1%; viability, T/C [28]: 93.8%; viability, T/C [29]: 88.4%; viability, T/C [32]: 92.1%; viability, T/C [33]: 85.4%; viability, T/C [34]: 93.4%; viability, T/C [35]: 94.7%
2 | CN(C)C/C=C/C(=O)Nc1cc2c(Nc3ccc(F)c(Cl)c3)ncnc2cc1O[C@H]1CCOC1 + COc1cc2nc(C)nc(NC(C)c3cc(N)cc(C(F)(F)F)c3)c2cc1OC1CCOC1 | > 0.1 µM | > 0.1 µM | > 0.1 µM | > 0.1 µM | > 0.1 µM | 96.5% | 75.3% | – | – | – | 88% | 74.7% | – | – | 85.9% | 81.7% | 84.6% | 63.5% | 65.9% | 59.5% | viability, T/C (second compound 0.1 µM, first compound 0.000316 µM): 104%; viability, T/C (second compound 0.1 µM, first compound 0.001 µM): 110%; viability, T/C (second compound 0.1 µM, first compound 0.00316 µM): 108%; viability, T/C [36]: 102%; viability, T/C (second compound 0.316 µM, first compound 0.000316 µM): 102%; viability, T/C (second compound 0.316 µM, first compound 0.001 µM): 102%; viability, T/C (second compound 0.316 µM, first compound 0.00316 µM): 91.9%; viability, T/C [37]: 87.9%; viability, T/C (second compound 1 µM, first compound 0.000316 µM): 99.5%; viability, T/C (second compound 1 µM, first compound 0.001 µM): 101%; viability, T/C (second compound 1 µM, first compound 0.00316 µM): 92.7%; viability, T/C [38]: 81.8%; viability, T/C (second compound 3.16 µM, first compound 0.000316 µM): 91%; viability, T/C (second compound 3.16 µM, first compound 0.001 µM): 85.3%; viability, T/C (second compound 3.16 µM, first compound 0.00316 µM): 89.7%; viability, T/C [39]: 78.7%; viability, T/C (second compound 10 µM, first compound 0.000316 µM): 78.2%; viability, T/C (second compound 10 µM, first compound 0.001 µM): 78.9%; viability, T/C (second compound 10 µM, first compound 0.00316 µM): 81.6%; viability, T/C [40]: 82.9%
3 | C=CC(=O)N1CCN(c2nc(OCC3CCCN3C)nc3c2CCN(c2cccc4cccc(C)c24)C3)CC1CC#N (stereo not given) | – | – | – | – | – | – | – | – | – | – | – | – | – | – | – | – | – | – | – | – | viability, T/C (compound 0.0316 µM): 98.7% [middle of 17 runs]; viability, T/C (compound 0.1 µM): 97% [middle of 17 runs]; IC50 (compound alone, run of 07/12/2021): > 3.16 µM; IC50 (compound alone, run of 07/19/2021): > 3.16 µM; IC50 (compound alone, run of 07/26/2021): > 3.16 µM
4 | CC1COCCN1c1cc(-c2ccnn2C)c2ccnc(-c3ccn[nH]3)c2n1 (stereo not given) + C=CC(=O)N1CCN(c2nc(=O)n(-c3c(C)ccnc3C(C)C)c3nc(-c4c(O)cccc4F)c(F)cc23)C(C)C1 | 0.299 µM | 0.288 µM | 0.369 µM | 0.0797 µM | 0.186 µM | 96.8% | 65.9% | 50% | 35.4% | 22% | 96.8% | 74.2% | 47.6% | 32.1% | 85.3% | 66.9% | 70.3% | 45.2% | 87.3% | 59.5% | viability, T/C [36]: 112%; viability, T/C [37]: 96.5%; viability, T/C [16]: 23.5%; viability, T/C [38]: 87.6%; viability, T/C [20]: 51.6%; viability, T/C [21]: 36.7%; viability, T/C [22]: 20.8%; viability, T/C [39]: 74.5%; viability, T/C [26]: 27.3%; viability, T/C [27]: 29.7%; viability, T/C [28]: 34.8%; viability, T/C [40]: 103%; viability, T/C [32]: 40.8%; viability, T/C [33]: 29.9%; viability, T/C [34]: 22.5%
5 | COc1cc2nccc(Oc3ccc(NC(=O)C4(C(=O)Nc5ccc(F)cc5)CC4)cc3)c2cc1OC + COc1cc2nc(C)nc(NC(C)c3cc(N)cc(C(F)(F)F)c3)c2cc1OC1CCOC1 | > 10 µM | > 10 µM | > 10 µM | > 10 µM | 2.67 µM | 101% | 109% | 114% | 99% | 58% | 85.9% | 108% | 122% | 90% | 103% | 106% | 103% | 104% | 64.5% | 103% | viability, T/C [11]: 96.4%; viability, T/C [16]: 66.2%; viability, T/C [17]: 98.8%; viability, T/C [20]: 104%; viability, T/C [21]: 90%; viability, T/C [22]: 42.1%; viability, T/C [23]: 84.4%; viability, T/C [26]: 87.7%; viability, T/C [27]: 80.6%; viability, T/C [28]: 20.9%; viability, T/C [29]: 92.7%; viability, T/C [32]: 90%; viability, T/C [33]: 67.2%; viability, T/C [34]: 4%; viability, T/C [35]: 90.1%
